# Patent US20140326192A1, “ANTIMICROBIAL ANIMAL PRODUCT” (COVENTRY UNIVERSITY, priority 2011, published 2014)
# Assay: Stability of the antimicrobial agent to melting during processing (activity retained)
# Format: physicochemical
# Method: Bundles of the dosed and non-dosed fibres were melted at 170° C. and compressed, to manufacture a number of continuous, smooth, 2 mm thick plastic sheets. The sheets were cut to create 50×50 mm area test pieces, as required by the standard test for Anti Microbial Activity ISO 22196:2007. This test is an appropriate method for assessing the surface antimicrobial activity of plastic materials when micro-organisms are placed onto the test piece.
# 3-(trihydroxysilyl)propyldimethyl octodecyl ammonium chloride was combined with polypropylene stock at a dosing rate of around 1% by total weight and the mixture melted, before extruding it into fibres. Control fibres were produced by a method identical other than omission of the 3-(trihydroxysilyl)propyldimethyl octodecyl ammonium chloride. The fibres were 0.45 mm with an X shape cross section and 100 mm long.
smiles,measurement,setting,value
"CCCCCCCCCCCCCCCCCC[N+](C)(C)CCC[Si](O)(O)O.[Cl-] [antimicrobial agent, 3-(trihydroxysilyl)propyldimethyl octodecyl ammonium chloride]",stability to re-melting of the fibres when making the test pieces,fibres melted at 170° C. and compressed,sufficiently stable
same,stability after melting when making the fibres,melting to 200° C.,sufficiently stable
